The record followed here is patent publication US20230357249A1, “ANDROGEN RECEPTOR PROTEIN DEGRADERS WITH A TRICYCLIC CEREBLON LIGAND” (THE REGENTS OF THE UNIVERSITY OF MICHIGAN, priority 2020, published 2023).

Structures are written as SMILES. Where only a bound is given, the exact number is not on record here.

The target of this assay is T1, AR protein (Homo sapiens, UniProt P10275).
T1 construct: endogenous in cells; host or cells: VCaP
T1 sequence (P10275 1-920): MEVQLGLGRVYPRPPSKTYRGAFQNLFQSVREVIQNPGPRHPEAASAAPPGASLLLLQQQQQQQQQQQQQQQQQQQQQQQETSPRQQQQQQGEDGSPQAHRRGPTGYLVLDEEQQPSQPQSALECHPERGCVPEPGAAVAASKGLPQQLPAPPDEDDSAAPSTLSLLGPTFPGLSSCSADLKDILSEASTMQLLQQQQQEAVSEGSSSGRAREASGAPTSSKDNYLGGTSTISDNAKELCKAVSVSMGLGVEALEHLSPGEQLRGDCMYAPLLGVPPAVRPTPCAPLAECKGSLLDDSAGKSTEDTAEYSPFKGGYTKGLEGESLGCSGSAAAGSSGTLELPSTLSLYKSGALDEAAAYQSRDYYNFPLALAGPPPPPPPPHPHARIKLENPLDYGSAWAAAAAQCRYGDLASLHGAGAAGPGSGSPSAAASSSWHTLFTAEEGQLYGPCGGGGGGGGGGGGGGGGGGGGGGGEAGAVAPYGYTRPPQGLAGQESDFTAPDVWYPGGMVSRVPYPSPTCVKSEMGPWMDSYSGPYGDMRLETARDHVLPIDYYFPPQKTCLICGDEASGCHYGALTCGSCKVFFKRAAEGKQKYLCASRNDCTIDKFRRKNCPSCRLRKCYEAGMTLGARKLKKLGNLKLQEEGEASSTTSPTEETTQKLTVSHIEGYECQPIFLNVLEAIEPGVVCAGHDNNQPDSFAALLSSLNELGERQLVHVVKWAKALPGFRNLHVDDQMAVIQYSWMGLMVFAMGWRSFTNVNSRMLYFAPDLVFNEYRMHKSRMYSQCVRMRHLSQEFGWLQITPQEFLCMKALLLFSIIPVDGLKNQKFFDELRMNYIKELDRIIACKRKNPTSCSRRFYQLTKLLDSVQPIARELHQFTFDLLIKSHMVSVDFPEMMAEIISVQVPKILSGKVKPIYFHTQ
The assay can be described thus: AR protein degradation in VCaP cells, Western blotting. Format: cell-based. Also on record: key to AR protein degradation VCap 10 nM / AR protein degradation VCap 100 nM: A: >90% degradation (24 hr treatment); B: >50% degradation but <90% (24 hr treatment); C: >10% degradation but <50% (24 hr treatment); D: No significant degradation (24 hr treatment). The note with it: 24 hr treatment; for percent AR protein degradation at 0.01 µM / AR protein degradation VCap 10 nM: 10 nM; for percent AR protein degradation at 0.1 µM / AR protein degradation VCap 100 nM: 100 nM. As for the experimental part:
The appropriate cell line, e.g., prostate cancer LNCaP, Vcap, or 22RV1 cell line, was treated with Compounds of the Disclosure as indicated. The treated cells were lysed with RIPA buffer. The AR level in the cell lysates was examined by western blotting and a specific AR antibody (ab194196, Abcam, Cambridge, MA 02139) with concentration of 1:20,000. GAPDH was used as a loading control.
Bands were quantified with ImageJ software. The relative numbers of each band obtained from normalization with its corresponding GAPDH level were compared with Prism 8 software. The DC50 values were produced from Prism 8, and the DC90 values were calculated with an equation=Bottom + (Top-Bottom)/(1+10^((LogEC50-X)*HillSlope) based on DC50 and Hillslope values.
The amount of AR protein degradation in VCap and MDA-MB-453 cells caused by representative Compounds of the Disclosure at the concentrations indicated is presented in Table 4, FIG. 1, and FIG. 2.

`CC1(C)[C@H](Oc2ccc(C#N)c(Cl)c2)C(C)(C)[C@H]1N1Cc2cc(C(=O)N3CCC(N4Cc5cc6c(cc5C4)C(=O)N(C4CCC(=O)NC4=O)C6=O)CC3)ccc2C1=O` (stereo partly shown) [compound 5] came in with a percent AR protein degradation at 0.01 µM of 10 to 50% and a percent AR protein degradation at 0.1 µM of 10 to 50%.
As to `CC1(C)[C@H](Oc2ccc(C#N)c(Cl)c2)C(C)(C)[C@H]1N1Cc2cc(C(=O)N3CCC(CN4Cc5cc6c(cc5C4)C(=O)N(C4CCC(=O)NC4=O)C6=O)CC3)ccc2C1=O` (stereo partly shown) [compound 6], the percent AR protein degradation at 0.01 µM lay in the range of 10 to 50% and the percent AR protein degradation at 0.1 µM lay in the range of 10 to 50%.
`CC1(C)[C@H](Oc2ccc(C#N)c(Cl)c2)C(C)(C)[C@H]1N1Cc2cc(C(=O)N3CCC(CCN4Cc5cc6c(cc5C4)C(=O)N(C4CCC(=O)NC4=O)C6=O)CC3)ccc2C1=O` (stereo partly shown) [compound 7] had a percent AR protein degradation at 0.01 µM of 50 to 90% and a percent AR protein degradation at 0.1 µM of more than 90%.
The matching figures for `N#Cc1ccc(O[C@H]2CC[C@H](NC(=O)c3ccc(N4CCC(CN5Cc6cc7c(cc6C5)C(=O)N(C5CCC(=O)NC5=O)C7=O)CC4)cc3)CC2)cc1Cl` (stereo partly shown) [compound 8, N-((1r,4r)-4-(3-chloro-4-cyanophenoxy)cyclohexyl)-4-(4-((6-(2,6-dioxopiperidin-3-yl)-5,7-dioxo-3,5,6,7-tetrahydropyrrolo[3,4-f]isoindol-2(1H)-yl)methyl)piperidin-1-yl)benzamide]: more than 90% and more than 90%.
Regarding `N#Cc1ccc(O[C@H]2CC[C@H](Nc3ccc(C(=O)N4CCC(CN5Cc6cc7c(cc6C5)C(=O)N(C5CCC(=O)NC5=O)C7=O)CC4)cc3)CC2)cc1Cl` (stereo partly shown) [compound 9], the “AR protein degradation VCap 10 nM” value is given as “D” and the percent AR protein degradation at 0.1 µM lay in the range of 50 to 90%.
On the same counts, the results for `N#Cc1ccc(O[C@H]2CC[C@H](Nc3ccc(C(=O)N4CCC(N5Cc6cc7c(cc6C5)C(=O)N(C5CCC(=O)NC5=O)C7=O)CC4)cc3)CC2)cc1Cl` (stereo partly shown) [compound 10] are “D” and 50 to 90%.
As to `N#Cc1ccc(O[C@H]2CC[C@H](Oc3ccc(C(=O)N4CCC(N5Cc6cc7c(cc6C5)C(=O)N(C5CCC(=O)NC5=O)C7=O)CC4)cc3)CC2)cc1Cl` (stereo partly shown) [compound 11], the “AR protein degradation VCap 10 nM” value was “D” and the “AR protein degradation VCap 100 nM” value is listed as “D”.
With `N#Cc1ccc(O[C@H]2CC[C@H](Oc3ccc(C(=O)N4CCC(CN5Cc6cc7c(cc6C5)C(=O)N(C5CCC(=O)NC5=O)C7=O)CC4)cc3)CC2)cc1Cl` (stereo partly shown) [compound 12], the “AR protein degradation VCap 10 nM” value is listed as “D” and the “AR protein degradation VCap 100 nM” value is recorded as “D”.
Compound `C[C@H]1C[C@H](NC(=O)c2ccc(N3CCC(N4Cc5cc6c(cc5C4)C(=O)N(C4CCC(=O)NC4=O)C6=O)CC3)cc2)CC[C@H]1Oc1ccc(C#N)c(Cl)c1` (stereo partly shown) [compound 13] had a percent AR protein degradation at 0.01 µM of more than 90% and a percent AR protein degradation at 0.1 µM of more than 90%.
`C[C@H]1C[C@H](NC(=O)c2ccc(N3CCC(CN4Cc5cc6c(cc5C4)C(=O)N(C4CCC(=O)NC4=O)C6=O)CC3)cc2)CC[C@H]1Oc1ccc(C#N)c(Cl)c1` (stereo partly shown) [compound 14] displayed a percent AR protein degradation at 0.01 µM of more than 90% and a percent AR protein degradation at 0.1 µM of more than 90%.
As to `C[C@H]1C[C@@H](NC(=O)c2ccc(N3CCC(CN4Cc5cc6c(cc5C4)C(=O)N(C4CCC(=O)NC4=O)C6=O)CC3)cc2)CC[C@@H]1Oc1ccc(C#N)c(Cl)c1` (stereo partly shown) [compound 15], the percent AR protein degradation at 0.01 µM is more than 90% and the percent AR protein degradation at 0.1 µM was more than 90%.
Consider `C[C@H]1C[C@@H](NC(=O)c2ccc(N3CCC(N4Cc5cc6c(cc5C4)C(=O)N(C4CCC(=O)NC4=O)C6=O)CC3)cc2)CC[C@@H]1Oc1ccc(C#N)c(Cl)c1` (stereo partly shown) [compound 16], for which the percent AR protein degradation at 0.01 µM is more than 90% and the percent AR protein degradation at 0.1 µM is more than 90%.
Take `N#Cc1ccc(N[C@H]2CC[C@H](NC(=O)c3ccc(N4CCC(N5Cc6cc7c(cc6C5)C(=O)N(C5CCC(=O)NC5=O)C7=O)CC4)cc3)CC2)cc1Cl` (stereo partly shown) [compound 17]: the percent AR protein degradation at 0.01 µM was more than 90% and the percent AR protein degradation at 0.1 µM is more than 90%.
Consider `N#Cc1ccc(N[C@H]2CC[C@H](NC(=O)c3ccc(N4CCC(CN5Cc6cc7c(cc6C5)C(=O)N(C5CCC(=O)NC5=O)C7=O)CC4)cc3)CC2)cc1Cl` (stereo partly shown) [compound 18], for which the percent AR protein degradation at 0.01 µM is 50 to 90% and the percent AR protein degradation at 0.1 µM is more than 90%.
The matching figures for `CN(c1ccc(C#N)c(Cl)c1)C1CCC(NC(=O)c2ccc(N3CCC(N4Cc5cc6c(cc5C4)C(=O)N(C4CCC(=O)NC4=O)C6=O)CC3)cc2)CC1` (stereo not shown) [compound 19, N-((1r,4r)-4-((3-chloro-4-cyanophenyl)(methyl)amino)cyclohexyl)-4-(4-(6-(2,6-dioxopiperidin-3-yl)-5,7-dioxo-3,5,6,7-tetrahydropyrrolo [3,4-f]isoindol-2(1H)-yl)piperidin-1-yl)benzamide]: more than 90% and more than 90%.
The matching figures for `CN(c1ccc(C#N)c(Cl)c1)[C@H]1CC[C@H](NC(=O)c2ccc(N3CCC(CN4Cc5cc6c(cc5C4)C(=O)N(C4CCC(=O)NC4=O)C6=O)CC3)cc2)CC1` (stereo partly shown) [compound 20, N-((1r,4r)-4-((3-chloro-4-cyanophenyl)(methyl)amino)cyclohexyl)-4-(4-((6-(2,6-dioxopiperidin-3-yl)-5,7-dioxo-3,5,6,7-tetrahydropyrrolo [3,4-f]isoindol-2(1H)-yl)methyl)piperidin-1-yl)benzamide]: more than 90% and more than 90%.
As for `N#Cc1ccc(O[C@H]2CC[C@H](NC(=O)c3ccc(N4CC(CN5Cc6cc7c(cc6C5)C(=O)N(C5CCC(=O)NC5=O)C7=O)C4)cc3)CC2)cc1Cl` (stereo partly shown) [compound 21], the percent AR protein degradation at 0.01 µM is 50 to 90% and the percent AR protein degradation at 0.1 µM is more than 90%.
Turning to `N#Cc1ccc(N[C@H]2CC[C@H](NC(=O)c3ccc(N4CC(CN5Cc6cc7c(cc6C5)C(=O)N(C5CCC(=O)NC5=O)C7=O)C4)cc3)CC2)cc1Cl` (stereo partly shown) [compound 22], the percent AR protein degradation at 0.01 µM fell in the range of 50 to 90% and the percent AR protein degradation at 0.1 µM was more than 90%.
Take `CN(c1ccc(C#N)c(Cl)c1)[C@H]1CC[C@H](NC(=O)c2ccc(N3CC(CN4Cc5cc6c(cc5C4)C(=O)N(C4CCC(=O)NC4=O)C6=O)C3)cc2)CC1` (stereo partly shown) [compound 23]: the percent AR protein degradation at 0.01 µM is more than 90% and the percent AR protein degradation at 0.1 µM is more than 90%.
Compound `N#Cc1ccc(O[C@H]2CC[C@H](NC(=O)c3ccc4c(c3)CCN(C(=O)CN3Cc5cc6c(cc5C3)C(=O)N(C3CCC(=O)NC3=O)C6=O)C4)CC2)cc1Cl` (stereo partly shown) [compound 24] had a percent AR protein degradation at 0.01 µM of more than 90% and a percent AR protein degradation at 0.1 µM of more than 90%.
As for `N#Cc1ccc(O[C@H]2CC[C@H](NC(=O)c3ccc4c(c3)CCN(C(=O)CN3Cc5cc6c(cc5C3)C(=O)N(C3CCC(=O)NC3=O)C6=O)CC4)CC2)cc1Cl` (stereo partly shown) [compound 25], the percent AR protein degradation at 0.01 µM is more than 90% and the percent AR protein degradation at 0.1 µM was more than 90%.
`N#Cc1ccc(N2CC[C@H]3C[C@H](NC(=O)c4ccc(N5CCC(CN6Cc7cc8c(cc7C6)C(=O)N(C6CCC(=O)NC6=O)C8=O)CC5)cc4)CC[C@H]32)cc1Cl` (stereo partly shown) [compound 26] returned a percent AR protein degradation at 0.01 µM of 10 to 50% and a percent AR protein degradation at 0.1 µM of 50 to 90%.
On the same counts, the results for `N#Cc1ccc(O[C@H]2CC[C@H](NC(=O)c3ccc4c(c3)CCN(CC(=O)N3Cc5cc6c(cc5C3)C(=O)N(C3CCC(=O)NC3=O)C6=O)C4)CC2)cc1Cl` (stereo partly shown) [compound 27, N-((1r,4r)-4-(3-chloro-4-cyanophenoxy)cyclohexyl)-2-(2-(6-(2,6-dioxopiperidin-3-yl)-5,7-dioxo-3,5,6,7-tetrahydropyrrolo[3,4-f]isoindol-2(1H)-yl)-2-oxoethyl)-1,2,3,4-tetrahydroisoquinoline-6-carboxamide] are 50 to 90% and more than 90%.
